Source: US20250143995A1, “ACTIVE AGENT MODULATING THE ACTIVITY OF AN ION CHANNEL FOR USE IN REGULATION OF SKIN PIGMENTATION” (Cutaneon - Skin & Hair Innovations GmbH, priority 2022, published 2025)

Key:
Type in all cases: cell-based
human skin organ culture [1] = assay: Epidermal melanin by Warthin-Starry histochemistry in ex vivo human skin organ culture; conditions: topical DMP 12.5 mM
Method: (§1) Samples of human abdominal, temporal, and occipital skin were obtained with written patient consent and under ethical approval from healthy adult human subjects during elective plastic surgery performed for cosmetic reasons. Full-thickness human skin samples were prepared as 4-6 mm punches, placed on filter paper, and cultured at the air-liquid interphase under serum-free conditions in William's E medium supplemented only with insulin, hydrocortisone and L-glutamine, as described previously. […]
(§2) Images were then obtained with a digital microscope (Keyence). Quantitative histomorphometric analysis was performed by assessing the relative intensity and the area of melanin stain in standardized reference areas with ImageJ (NIH; Bethesda, MD, USA). Briefly, for each parameter evaluated, multiple non-consecutive skin sections (at least 280 μm apart from each other) per punch biopsy were stained. Two skin punch biopsies were analyzed per experimental group unless indicated otherwise. The melanin content was then calculated based on the product of the fraction of area occupied by melanin and the mean shade of gray of the melanin, as described in detail elsewhere. […]

human skin organ culture [2] = assay: Epidermal melanin by Fontana Masson histochemistry in ex vivo human skin organ culture
Method: Samples of human abdominal, temporal, and occipital skin were obtained with written patient consent and under ethical approval from healthy adult human subjects during elective plastic surgery performed for cosmetic reasons. Full-thickness human skin samples were prepared as 4-6 mm punches, placed on filter paper, and cultured at the air-liquid interphase under serum-free conditions in William's E medium supplemented only with insulin, hydrocortisone and L-glutamine, as described previously.
For topical application of 2,5-dimethylpyrazine (DMP) (Sigma), a TRPM5 activator, a stock was prepared in ethanol and dissolved at 37° C. at a final concentration of 12.5 mM in a 50% v/v solution of Isopropanol in PBS containing 1 g/mL of Polyethylene glycol 6000. For topical application of triphenylphosphine oxide (TPPO) (Sigma), and TRPM5 inhibitor, a stock was prepared in ethanol and dissolved at 37° C. at a final concentration of 1.5 mM in a 50% v/v solution of Isopropanol in PBS containing 1 g/mL of Polyethylene glycol 6000. […]
as §2
For Fontana Masson stain, ethanol/acetic acid-fixed human skin/HF frozen sections were rinsed in two and three washes of Tris-buffered saline and distilled water, respectively. […] Image acquisition and quantitative histomorphometric analysis were performed similar to as described for the Warthin-Starry technique.

gp100 = assay: gp100-specific immunoreactivity in ex vivo human skin organ culture; conditions: after 3 days
Method: as §1, §2

tyrosinase = assay: In situ tyrosinase activity in ex vivo human skin organ culture; conditions: after 3 days
Method: as §1, §2

[3] = topical DMP 12.5 mM, compared to vehicle
[4] = TPPO 1.5 mM combined with DMP 12.5 mM, topical

| intensity level of tyrosinase activity in the basal epidermal layers (tyrosinase; [3]) | effect on the DMP-induced increase of tyrosinase activity in the basal epidermal layers (tyrosinase; [4]) | Structure (SMILES) | melanin content in the basal layer and in the suprabasal layers (Warthin-Starry technique) (human skin organ culture [1]; 3 days) | epidermal melanin content (Warthin-Starry technique) (human skin organ culture [1]; after 3 days, compared to vehicle) | melanin content in the basal layer and in the suprabasal layers (Fontana-Masson technique) (human skin organ culture [2]; topical DMP 12.5 mM, 3 days) | epidermal melanin content (Fontana-Masson technique) (human skin organ culture [2]; topical DMP 12.5 mM, after 3 days, compared to vehicle) | intensity level of gp100-specific IR in the basal epidermal layers (gp100; [3]) | effect on the DMP-induced increase of epidermal melanin content (Fontana-Masson technique) (human skin organ culture [2]; TPPO 1.5 mM combined with DMP 12.5 mM, topical, after 3 days) | effect on the DMP-induced increase of gp100-specific IR in the basal epidermal layers (gp100; [4]) |
| --- | --- | --- | --- | --- | --- | --- | --- | --- | --- |
| markedly increases | – | Cc1cnc(C)cn1 [DMP, 2,5-dimethylpyrazine] | increased | markedly increases | increased | markedly increases | markedly increases | – | – |
| – | prevented the effect | O=P(c1ccccc1)(c1ccccc1)c1ccccc1 [TPPO, triphenylphosphine oxide] | – | – | – | – | – | prevented the effect | prevented the effect |
